These are literature values, as cited in PMC4153342 (Vaccine, 2014).

The data set concerns HLA-A2 on TAP-deficient/HLA-A2+ T2 cells. Particulars: previously reported.
Consider AMTKLGFKA [p57], for which the “affinity for HLA-A2 in vitro” value is “have affinity for HLA-A2”.
For KASEKIFYV [p41], the “affinity for HLA-A2 in vitro” value was “have affinity for HLA-A2”.
Take MTFGRLQGI [p99]: the “affinity for HLA-A2 in vitro” value is “have affinity for HLA-A2”.
In the case of RLQGISPKI [p103], the “affinity for HLA-A2 in vitro” value was “have affinity for HLA-A2”.
